How the values were obtained:
[1] = test system: HIF2α-dependent transcription in 786-O-HRE-Luc cells; assay: In vitro cellular hypoxia response element (HRE) reporter gene assay (RGA) for HIF2α; assay type: cell-based, human; conditions: Homo sapiens, 24 hours incubation
Summary of the method: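 Renal carcinoma cells carrying a 4×HRE-driven PEST-destabilised firefly luciferase were treated a day after seeding with eleven 2-fold compound dilutions (0.1% DMSO) for 24 h at 37° C. BrightGlo luminescence, background-subtracted and expressed as % of DMSO control, was fitted four-parametrically for IC50.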

[2] = molecular target: HIF2α PAS-B domain (236-350, biotinylated on the N-terminus) (Homo sapiens (Human), UniProt Q99814)
Chain of HIF2α PAS-B domain (236-350, biotinylated on the N-terminus) (Q99814 236-350): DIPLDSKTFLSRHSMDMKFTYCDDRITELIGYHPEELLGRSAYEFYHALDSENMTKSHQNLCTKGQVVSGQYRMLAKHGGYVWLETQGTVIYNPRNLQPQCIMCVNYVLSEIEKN
Description: The assay buffer contained 50 mM Tris-HCl pH7 (Sigma), 20 mM NaCl (Fluka), 0.02% BSA (Sigma), 0.005% Triton X-100 (Pierce) and 1 mM DTT (Fluka). After a 30 min incubation period, 5 μL Streptavidin PVT SPA Beads (Perkin Elmer) at 1.2 mg/mL, diluted in the buffer, were added.

SMILES | IC50 [1] | IC50 [2]
FC(F)OC1=CC(C(F)(F)F)=CN2C[C@@]3(CCC(F)(F)c4c3ccnc4Cl)N=C12 [Example 31, (S)-1′-chloro-8-(difluoromethoxy)-8′,8′-difluoro-6-(trifluoromethyl)-7′,8′-dihydro-3H,6′H-spiro[imidazo[1,2-a]pyridine-2,5′-isoquinoline]] | 246 nM | 9 nM
FC(F)OC1=CC(C(F)(F)F)=CN2C[C@@]3(CCOc4cc(C(F)(F)F)ccc43)N=C12 [Example 44, (S)-8′-(difluoromethoxy)-6′,7-bis(trifluoromethyl)-3′H-spiro[chroman-4,2′-imidazo[1,2-a]pyridine]] | 112 nM | 13 nM

Reference: US12226405B2, “Compounds and compositions for inhibiting the activity of HIF2-alpha and their methods of use” (Novartis AG, priority 2020, dated 2025)
